Results on one substance are retold here after patent publication US20020037844A1, “SYNTHETIC PEPTIDE FOR TREATMENT OF AUTOIMMUNE ARTHRITIS” (priority 1993, published 2002).

This assay relates to antibodies reactive with type II collagen. The assay can be described thus: Serum antibodies to CII by ELISA in co-immunized mice. Type of assay: in vivo, DBA/1 mice. To be noted: for Antibodies to CII: serum four weeks after immunization, mean. The method, then: Mice were bled at four weeks after immunization and the serum was tested for antibodies reactive with type II collagen by enzyme-linked immunoassay (ELISA) described in Stuart, J. M., A. S. Townes, and A. H. Kang. 1982. Nature and Specificity of the Immune Response to Collagen in Type II Collagen-Induced Arthritis in Mice, J. Clin. Invest. 69:673. The disclosure of this article is incorporated by reference An anti-CII serum standard was used in each assay. A standard curve was derived by computer analysis using a 4 parameter logistic curve. Results are reported as units of activity, derived by comparison of test sera with the curve derived from the anti-CII standard which was arbitrarily defined as having 50 units of activity. Sera from mice were tested individually, and means were calculated for each experimental group.
In order to assess the effects of co-immunizing mice with both CII 245-270[s260, 261, 263] and CII, the mean antibody titers to native CII were measured for each immunization group in Table III, four weeks after immunization (Table IV).

For the substance “Pro - Thr - Gly - Pro - Leu - Gly - Pro - Lys - Gly - Gln - Thr - Gly - Glx - Leu - Gly - Ala - 4Hyp - Gly - Asn - Lys - Gly - Glx - Gln - Gly - Pro - Lys [CII 245-270 [s260, 261, 263], analog of CII 245-270 with alanine at 260, hydroxyproline at 261, asparagine at 263]”, the “Immune responses to CII in vivo as well as in vitro, in words” value (co-immunization with CII) is recorded as “significantly down regulated”. Also, the “Antibodies to CII” value (molar ratio CII:peptide 1:160) is on record as 53 ± 25 units of activity, the “Antibodies to CII” value (molar ratio CII:peptide 1:320) is listed as 34 ± 22 units of activity and the “Antibodies to CII” value (molar ratio CII:peptide 1:480) was 17 ± 3 units of activity.
